Data from PubChem BioAssay (NCI).
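The compound was tested at five concentrations on cells cultured in 96-well plates, with a 48-hour exposure period. TGI: concentration producing complete growth inhibition.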

What was measured:
Test in all cases: NCI-60 cell line screen, 48 h
786-0 renal = system: 786-0 renal
A498 renal = system: A498 renal
A549 NSCLC = system: A549 NSCLC
ACHN renal = system: ACHN renal
CAKI-1 renal = system: CAKI-1 renal
CCRF-CEM leukemia = system: CCRF-CEM leukemia
COLO 205 colon = system: COLO 205 colon
DLD-1 colon = system: DLD-1 colon
DMS 114 small cell lung = system: DMS 114 small cell lung
DMS 273 small cell lung = system: DMS 273 small cell lung
EKVX NSCLC = system: EKVX NSCLC
HCC-2998 colon = system: HCC-2998 colon
HCT-116 colon = system: HCT-116 colon
HCT-15 colon = system: HCT-15 colon
HL-60(TB) leukemia = system: HL-60(TB) leukemia
HOP-18 NSCLC = system: HOP-18 NSCLC
HOP-92 NSCLC = system: HOP-92 NSCLC
HT29 colon = system: HT29 colon
IGROV1 ovarian = system: IGROV1 ovarian
K-562 leukemia = system: K-562 leukemia
KM12 colon = system: KM12 colon
KM20L2 colon = system: KM20L2 colon
LOX IMVI melanoma = system: LOX IMVI melanoma
LXFL 529 NSCLC = system: LXFL 529 NSCLC
M14 melanoma = system: M14 melanoma
M19-MEL melanoma = system: M19-MEL melanoma
MALME-3M melanoma = system: MALME-3M melanoma
MOLT-4 leukemia = system: MOLT-4 leukemia
NCI-H226 lung = system: NCI-H226 lung
NCI-H23 lung = system: NCI-H23 lung
NCI-H522 lung = system: NCI-H522 lung
OVCAR-3 ovarian = system: OVCAR-3 ovarian
OVCAR-4 ovarian = system: OVCAR-4 ovarian
OVCAR-5 ovarian = system: OVCAR-5 ovarian
OVCAR-8 ovarian = system: OVCAR-8 ovarian
RPMI-8226 leukemia = system: RPMI-8226 leukemia
RXF 393 renal = system: RXF 393 renal
RXF-631 renal = system: RXF-631 renal
SF-268 CNS = system: SF-268 CNS
SF-295 CNS = system: SF-295 CNS
SF-539 CNS = system: SF-539 CNS
SK-MEL-2 melanoma = system: SK-MEL-2 melanoma
SK-MEL-28 melanoma = system: SK-MEL-28 melanoma
SK-MEL-5 melanoma = system: SK-MEL-5 melanoma
SK-OV-3 ovarian = system: SK-OV-3 ovarian
SN12C renal = system: SN12C renal
SNB-19 CNS = system: SNB-19 CNS
SNB-75 CNS = system: SNB-75 CNS
SW-620 colon = system: SW-620 colon
TK-10 renal = system: TK-10 renal
U251 CNS = system: U251 CNS
UACC-257 melanoma = system: UACC-257 melanoma
UACC-62 melanoma = system: UACC-62 melanoma
UO-31 renal = system: UO-31 renal
NCI-H460 lung = system: NCI-H460 lung
SNB-78 CNS = system: SNB-78 CNS
XF 498 CNS = system: XF 498 CNS

Measured: TGI

O=S1Nc2c(Cl)cc(Cl)c3c(Cl)cc(Cl)c(c23)N1
74.8 µM: DLD-1 colon
69.5 µM: NCI-H226 lung
89.8 µM: NCI-H522 lung
91.2 µM: OVCAR-4 ovarian
69.6 µM: U251 CNS
74.4 µM: A498 renal
96.2 µM: OVCAR-3 ovarian
99.8 µM: HCC-2998 colon
95.2 µM: CAKI-1 renal
50.9 µM: RXF 393 renal
66 µM: UACC-62 melanoma
51 µM: HOP-92 NSCLC
41.9 µM: 786-0 renal
73.8 µM: ACHN renal
55.3 µM: SNB-75 CNS
not listed: NCI-H460 lung | SNB-78 CNS | XF 498 CNS
> 100 µM: all other assays above

Cc1c(C(=O)/C=C/c2ccc(N(C)C)cc2)c(=O)n(-c2ccccc2)n1C
not listed: DLD-1 colon | HL-60(TB) leukemia | HOP-18 NSCLC | K-562 leukemia | M14 melanoma | OVCAR-4 ovarian | RPMI-8226 leukemia | RXF-631 renal | SK-MEL-5 melanoma | SNB-75 CNS
> 100 µM: all other assays above
